Assay results published in publication PMC11859928, “Design, Synthesis, and Antiproliferative Activity of Novel Indole/1,2,4-Triazole Hybrids as Tubulin Polymerization Inhibitors” (Pharmaceuticals, 2025).

Legend:
Type in all cases: cell-based, human
IGROV1 = assay: NCI five-dose assay; details: IGROV1, Ovarian cancer
A549/ATCC = assay: NCI five-dose assay; details: Non-small cell lung cancer
OVCAR-4 = assay: NCI five-dose assay; details: OVCAR-4, Ovarian cancer
SN12C = assay: NCI five-dose assay; details: Renal cancer
ACHN = assay: NCI five-dose assay; details: Renal cancer
RXF393 = assay: NCI five-dose assay; details: RXF393, Renal cancer
BT-549 = assay: NCI five-dose assay; details: BT-549, Breast cancer
RPMI-8226 = assay: NCI five-dose assay; details: Homo sapiens, RPMI-8226, Leukemia
MOLT-4 = assay: NCI five-dose assay; details: MOLT-4, Leukemia
HOP-92 = assay: NCI five-dose assay; details: HOP-92, Non-small cell lung cancer
Colon cancer subpanel = assay: NCI five-dose assay, subpanel mean
CCRF-CEM = assay: NCI five-dose assay; details: Homo sapiens, Leukemia
MDA/MB-231-ATCC = assay: NCI five-dose assay; details: Breast cancer
NCI-H322M = assay: NCI five-dose assay; details: Non-small cell lung cancer
Leukemia subpanel = assay: NCI five-dose assay, subpanel mean
CAKI-1 = assay: NCI five-dose assay; details: CAKI-1, Renal cancer
A498 = assay: NCI five-dose assay; details: A498, Renal cancer
M14 = assay: NCI five-dose assay; details: M14, Melanoma
Renal cancer subpanel = assay: NCI five-dose assay, subpanel mean
HS 578T = assay: NCI five-dose assay; details: Breast cancer
Ovarian cancer subpanel = assay: NCI five-dose assay, subpanel mean
NCI-H226 = assay: NCI five-dose assay; details: NCI-H226, Non-small cell lung cancer
[1] = tested on: Non-small cell lung cancer subpanel; assay: NCI five-dose assay, subpanel mean
U251 = assay: NCI five-dose assay; details: Homo sapiens, U-251, U251, CNS cancer
SF-539 = assay: NCI five-dose assay; details: SF-539, CNS cancer
MDA-MB-468 = assay: NCI five-dose assay; details: MDA-MB-468, Breast cancer
HL-60(TB) = assay: NCI five-dose assay; details: Leukemia
[2] = Homo sapiens, 48 h, read-out: LC50 (the source's name)
[3] = Homo sapiens, read-out: GI50 Conc. per Cell Lines
[4] = 48 h, read-out: LC50 (the source's name)
[5] = read-out: GI50 Conc. per Cell Lines

O/N=C(\CSc1nnc(-c2c[nH]c3ccccc23)n1-c1ccccc1)c1ccc(Br)cc1 [Compound 7i, (Z)-2-((5-(1H-Indol-3-yl)-4-phenyl-4H-1,2,4-triazol-3-yl)thio)-1-(4-bromophenyl) Ethanone Oxime]
CC50 (IGROV1; Homo sapiens, IGROV-1, 48 h, read-out: LC50 (the source's name)): 38.3 µM
GI50 (IGROV1; Homo sapiens, IGROV-1, read-out: GI50 Conc. per Cell Lines): 3.41 µM
TGI Conc. per Cell Lines (IGROV1): 11.70 µM
CC50 (A549/ATCC; [2]): 31 µM
GI50 (A549/ATCC; [3]): 2.49 µM
TGI Conc. per Cell Lines (A549/ATCC): 6.66 µM
GI50 (OVCAR-4; [3]): 2.14 µM
TGI Conc. per Cell Lines (OVCAR-4): 4.57 µM
CC50 (SN12C; [2]): 30.1 µM
GI50 (SN12C; [3]): 2.52 µM
TGI Conc. per Cell Lines (SN12C): 7.97 µM
LC50 (ACHN; Homo sapiens, 48 h): 24.9 µM
GI50 (ACHN; [3]): 2.53 µM
TGI Conc. per Cell Lines (ACHN): 7.05 µM
LC50 (concentration killing 50% of cells) (RXF393; Homo sapiens, RXF 393, 48 h): 7.65 µM
GI50 (RXF393; Homo sapiens, RXF 393, read-out: GI50 Conc. per Cell Lines): 1.75 µM
TGI Conc. per Cell Lines (RXF393): 3.65 µM
TGI Conc. per Cell Lines (BT-549): 7.25 µM
CC50 (BT-549; [2]): 34.2 µM
GI50 (BT-549; [3]): 3.16 µM
CC50 (RPMI-8226; [4]): > 100 µM
GI50 (RPMI-8226; [5]): 2.45 µM
CC50 (MOLT-4; [2]): > 100 µM
GI50 (MOLT-4; [3]): 2.09 µM
TGI Conc. per Cell Lines (MOLT-4): 4.80 µM
TGI Conc. per Cell Lines (HOP-92): 24.10 µM
CC50 (HOP-92; [2]): > 100 µM
GI50 (HOP-92; [3]): 3.66 µM
GI50 Selectivity Ratio (MID a/MID b) (Colon cancer subpanel; Colon cancer subpanel): 0.88
GI50 (Colon cancer subpanel; Homo sapiens, average sensitivity of all cell lines of the Colon cancer subpanel, read-out: GI50 Subpanel MID b): 3.19 µM
CC50 (CCRF-CEM; [4]): > 100 µM
GI50 (CCRF-CEM; [5]): 2.78 µM
TGI Conc. per Cell Lines (MDA/MB-231-ATCC): 3.26 µM
LC50 (MDA/MB-231-ATCC; Homo sapiens, 48 h): 6.21 µM
GI50 (MDA/MB-231-ATCC; [3]): 1.71 µM
CC50 (NCI-H322M; [2]): 93.3 µM
GI50 (NCI-H322M; [3]): 4.8 µM
TGI Conc. per Cell Lines (NCI-H322M): 24.20 µM
GI50 (Leukemia subpanel; Homo sapiens, average sensitivity of all cell lines of the Leukemia subpanel, read-out: GI50 Subpanel MID b): 2.29 µM
GI50 Selectivity Ratio (MID a/MID b) (Leukemia subpanel; Leukemia subpanel): 1.22
TGI Conc. per Cell Lines (CAKI-1): 8.10 µM
LC50 (CAKI-1; Homo sapiens, 48 h): 38 µM
GI50 (CAKI-1; [3]): 2.63 µM
TGI Conc. per Cell Lines (A498): 51.70 µM
LC50 (A498; Homo sapiens, 48 h): > 100 µM
GI50 (A498; [3]): 1.63 µM
CC50 (M14; [2]): > 100 µM
GI50 (M14; [3]): 3.4 µM
TGI Conc. per Cell Lines (M14): 17.60 µM
GI50 (Renal cancer subpanel; Homo sapiens, average sensitivity of all cell lines of the Renal cancer subpanel, read-out: GI50 Subpanel MID b): 2.87 µM
GI50 Selectivity Ratio (MID a/MID b) (Renal cancer subpanel; Renal cancer subpanel): 0.98
TGI Conc. per Cell Lines (HS 578T): 11.90 µM
LC50 (HS 578T; Homo sapiens, 48 h): > 100 µM
GI50 (HS 578T; [3]): 2.84 µM
GI50 (Ovarian cancer subpanel; Homo sapiens, average sensitivity of all cell lines of the Ovarian cancer subpanel, read-out: GI50 Subpanel MID b): 2.79 µM
GI50 Selectivity Ratio (MID a/MID b) (Ovarian cancer subpanel; Ovarian cancer subpanel): 1.00
CC50 (NCI-H226; [2]): 51.4 µM
GI50 (NCI-H226; [3]): 3.33 µM
TGI Conc. per Cell Lines (NCI-H226): 14.90 µM
GI50 ([1]; Homo sapiens, average sensitivity of all cell lines of the Non-small cell lung cancer subpanel, read-out: GI50 Subpanel MID b): 3.23 µM
GI50 Selectivity Ratio (MID a/MID b) ([1]; Non-small cell lung cancer subpanel): 0.87
CC50 (U251; [4]): 51.2 µM
GI50 (U251; [5]): 4.38 µM
CC50 (SF-539; [2]): 38.4 µM
GI50 (SF-539; [3]): 4.04 µM
TGI Conc. per Cell Lines (SF-539): 14.20 µM
LC50 (MDA-MB-468; Homo sapiens, 48 h): 6.32 µM
GI50 (MDA-MB-468; [3]): 1.72 µM
TGI Conc. per Cell Lines (MDA-MB-468): 3.30 µM
CC50 (HL-60(TB); [2]): > 100 µM
GI50 (HL-60(TB); [3]): 1.92 µM
TGI Conc. per Cell Lines (HL-60(TB)): 4.55 µM
